The target of one data set is Large T antigen (Simian virus 40, UniProt P03070). The format is functional, Betapolyomavirus macacae.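 Note: Confirmatory-stage PubChem screen for compounds that inhibit SV40 T antigen.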
A further data set deals with Protein Tat (Human immunodeficiency virus type 1 group M subtype B (isolate HXB2)(HIV-1), UniProt P04608). In kind it is functional.
Data set [1] addresses T1, Calpain-2 catalytic subunit (Sus scrofa, UniProt P43367).
T1 sequence (P43367 whole entry): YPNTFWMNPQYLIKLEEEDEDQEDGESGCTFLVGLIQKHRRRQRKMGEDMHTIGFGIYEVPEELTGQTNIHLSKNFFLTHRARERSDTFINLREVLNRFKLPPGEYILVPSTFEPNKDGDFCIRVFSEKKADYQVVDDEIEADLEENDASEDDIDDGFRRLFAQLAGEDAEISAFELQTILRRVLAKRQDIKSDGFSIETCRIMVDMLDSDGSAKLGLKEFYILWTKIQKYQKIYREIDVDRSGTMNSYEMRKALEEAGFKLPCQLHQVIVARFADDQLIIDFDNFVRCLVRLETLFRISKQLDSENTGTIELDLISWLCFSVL
Briefly: m-calpain protease blockers, concentration series – biochemical, fluorogenic peptide substrate, dose response (AID 1420). The format is functional.

The nature of data set [2]: viability inhibitors of stage V gametocytes – luminescence, dose response (AID 1117278).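 Note: gametocytes exposed to compound for 24 hours.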 The format is functional, cell-based.
Data set [3] is described as follows: viability loss in human Jurkat cells – cell-based, luminescence, cytotoxicity control for P. falciparum gametocyte viability project, dose response (AID 1117277).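 Note: potency reflects loss of cellular ATP meaning fewer viable cells.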 The format is functional.
Data set [4] in a line: HIV-1 Vif–A3G interaction blockers – biochemical, TR-FRET, GST-Vif 1-94, biotin-A3G peptide, dose response retest, primary screen (AID 1117319).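 Note: TR-FRET signal of purified GST-Vif binding a biotinylated A3G peptide; inhibitors lower the FRET signal by blocking Vif and A3G binding.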 In kind it is functional. (In TR-FRET formats the signal depends on donor and acceptor labels being close together.)
A short description of data set [5]: growth inhibition of yeast DHODH-expressing 3D7 parasites – SYBR Green, dry powder samples, dose response (AID 1159570).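 Note: parasite growth measured after 72 hours of compound exposure.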 In kind it is functional, cell-based.
A short description of data set [6]: P. falciparum Dd2 growth inhibitors, dose response, SYBR Green, cherry-picked samples (AID 1159567). In kind it is functional, cell-based.
Data set [7] in a line: Dd2 malaria parasite growth inhibition potency – SYBR Green, dry powder samples, dose response (AID 1159566).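 Note: potency for growth inhibition with lower SYBR green DNA signal.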 In kind it is functional, cell-based.
A short description of data set [8]: growth inhibition of PfATP4-mutant resistant parasites – NITD609-resistant line, SYBR Green, dry powder, dose response (AID 1159571).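 Note: parasites synchronized at ring stage by sorbitol before testing.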 In kind it is functional, cell-based.
For the next data set, the target named is Ephrin type-A receptor 4 (Mus musculus, UniProt Q03137). Briefly: EphA4 ligand-binding antagonists – biochemical, colorimetric, mouse EphA4, primary screen (AID 689). The format is functional.
Chain of Ephrin type-A receptor 4 (Q03137 whole entry): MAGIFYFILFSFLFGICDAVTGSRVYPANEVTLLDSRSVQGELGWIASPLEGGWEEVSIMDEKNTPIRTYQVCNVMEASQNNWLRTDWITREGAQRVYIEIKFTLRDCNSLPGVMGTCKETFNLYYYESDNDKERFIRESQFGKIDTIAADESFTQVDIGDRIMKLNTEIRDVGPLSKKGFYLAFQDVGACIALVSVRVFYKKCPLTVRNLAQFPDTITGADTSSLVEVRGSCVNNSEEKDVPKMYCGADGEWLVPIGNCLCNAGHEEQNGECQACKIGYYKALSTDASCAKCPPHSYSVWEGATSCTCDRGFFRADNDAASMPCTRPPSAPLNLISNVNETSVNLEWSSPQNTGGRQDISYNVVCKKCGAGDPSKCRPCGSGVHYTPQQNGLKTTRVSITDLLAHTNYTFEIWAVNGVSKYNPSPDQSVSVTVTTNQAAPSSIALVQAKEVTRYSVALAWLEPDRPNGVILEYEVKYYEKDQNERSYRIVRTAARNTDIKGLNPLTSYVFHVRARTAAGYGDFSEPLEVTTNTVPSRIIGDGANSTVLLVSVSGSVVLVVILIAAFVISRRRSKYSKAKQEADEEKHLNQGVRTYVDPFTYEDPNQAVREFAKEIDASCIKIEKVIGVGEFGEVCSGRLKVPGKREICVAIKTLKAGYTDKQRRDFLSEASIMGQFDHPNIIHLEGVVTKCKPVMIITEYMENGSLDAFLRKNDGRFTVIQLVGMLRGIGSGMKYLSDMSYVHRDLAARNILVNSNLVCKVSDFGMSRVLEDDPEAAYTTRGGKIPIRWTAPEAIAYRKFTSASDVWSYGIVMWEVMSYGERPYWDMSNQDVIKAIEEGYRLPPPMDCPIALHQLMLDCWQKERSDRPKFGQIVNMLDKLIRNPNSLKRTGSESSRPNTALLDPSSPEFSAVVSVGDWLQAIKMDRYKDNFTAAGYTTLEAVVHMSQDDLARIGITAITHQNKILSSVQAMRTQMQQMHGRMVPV
Another data set concerns the target Cytochrome P450 2C9 (Homo sapiens, UniProt P11712).
The target of data set [9] is Sphingosine 1-phosphate receptor 2 (Homo sapiens, UniProt O95136). Briefly: Dose Response Cell Based Assay for Antagonists of the S1P2 Receptor. [Related pubchem assays: 856, 736 ]. The format is functional.
Chain of Sphingosine 1-phosphate receptor 2 (O95136 whole entry): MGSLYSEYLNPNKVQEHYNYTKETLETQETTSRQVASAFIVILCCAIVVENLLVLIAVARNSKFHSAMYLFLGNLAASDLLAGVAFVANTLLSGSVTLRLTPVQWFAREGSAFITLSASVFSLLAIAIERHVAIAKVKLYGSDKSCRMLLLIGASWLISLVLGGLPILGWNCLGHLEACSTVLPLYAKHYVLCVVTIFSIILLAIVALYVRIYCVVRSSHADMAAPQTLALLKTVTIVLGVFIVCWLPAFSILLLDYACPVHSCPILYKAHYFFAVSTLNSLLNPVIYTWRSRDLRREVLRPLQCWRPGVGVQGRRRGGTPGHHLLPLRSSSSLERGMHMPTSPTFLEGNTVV
A short description of data set [10]: viability of uninfected HEp-2 cells – cell-based, HTS, cytotoxicity control for RSV inhibitor project, dose response (AID 2410). To be noted: human respiratory syncytial virus. The format is functional.
In a further data set the target is Paired box protein Pax-8 (Homo sapiens, UniProt Q06710). Briefly: PAX8 transcriptional activity inhibition in RMG-I – RMG-I cells, luciferase, cherry-pick, dose response (AID 687027).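 Note: luciferase reporter driven by Pax8 target thyroperoxidase promoter measured by SteadyGlo luminescence.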 The format is functional, cell-based.
Chain of Paired box protein Pax-8 (Q06710 whole entry): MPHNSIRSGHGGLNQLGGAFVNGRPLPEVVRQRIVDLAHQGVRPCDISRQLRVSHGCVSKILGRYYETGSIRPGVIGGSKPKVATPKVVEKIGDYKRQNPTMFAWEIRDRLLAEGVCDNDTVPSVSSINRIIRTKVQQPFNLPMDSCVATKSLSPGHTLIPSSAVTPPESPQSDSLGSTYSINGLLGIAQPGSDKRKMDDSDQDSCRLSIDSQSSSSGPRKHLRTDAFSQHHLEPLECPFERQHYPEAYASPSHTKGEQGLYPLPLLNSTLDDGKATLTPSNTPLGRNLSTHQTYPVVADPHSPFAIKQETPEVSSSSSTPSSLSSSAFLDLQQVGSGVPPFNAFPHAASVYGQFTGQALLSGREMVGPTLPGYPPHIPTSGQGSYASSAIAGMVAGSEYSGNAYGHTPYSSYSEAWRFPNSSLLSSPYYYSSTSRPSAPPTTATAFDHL
The nature of data set [11]: OVCAR8 cell viability loss – plate reader, dry powder samples, PAX8 project, dose response (AID 743197). In kind it is functional, cell-based. To be noted: OVCAR-8.
The nature of data set [12]: CellTiter-Glo luminescence survival assay, SW480 colon tumor line, concentration-response curve, half-maximal inhibitory concentration (AID 1117338). The format is functional. For orientation: In ATP-based viability assays light output follows the ATP content of the culture.
Data set [13] is described as follows: RKO cell viability reduction, dose response, CellTiter-Glo luminescence (AID 1117322). In kind it is functional.
Data set [14] in a line: cytotoxicity toward HCT116 cells – cell-based, CellTiter-Glo luminescence, IC50, dose response (AID 1117332). To be noted: HCT-116. In kind it is functional.
A short description of data set [15]: SNU-C1 cell viability reduction, dose response, CellTiter-Glo luminescence (AID 1117323). In kind it is functional, cell-based.
A short description of data set [16]: cytotoxicity toward Colo320 cells – cell-based, CellTiter-Glo luminescence, IC50, dose response (AID 1117334). In kind it is functional. To be noted: COLO 320.
Data set [17] can be described thus: cytotoxicity toward HT-29 cells – cell-based, CellTiter-Glo luminescence, IC50, dose response (AID 1117330). In kind it is functional.
The nature of data set [18]: Reduced DLD-1 viability, concentration-response, CellTiter-Glo luminescence (AID 1117352). In kind it is functional.
The target in another data set is Cytochrome P450 3A4 (Homo sapiens, UniProt P08684).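 Note: CYP3A4 tested as one member of a cytochrome P450 panel screen.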
Chain of Cytochrome P450 3A4 (P08684 whole entry): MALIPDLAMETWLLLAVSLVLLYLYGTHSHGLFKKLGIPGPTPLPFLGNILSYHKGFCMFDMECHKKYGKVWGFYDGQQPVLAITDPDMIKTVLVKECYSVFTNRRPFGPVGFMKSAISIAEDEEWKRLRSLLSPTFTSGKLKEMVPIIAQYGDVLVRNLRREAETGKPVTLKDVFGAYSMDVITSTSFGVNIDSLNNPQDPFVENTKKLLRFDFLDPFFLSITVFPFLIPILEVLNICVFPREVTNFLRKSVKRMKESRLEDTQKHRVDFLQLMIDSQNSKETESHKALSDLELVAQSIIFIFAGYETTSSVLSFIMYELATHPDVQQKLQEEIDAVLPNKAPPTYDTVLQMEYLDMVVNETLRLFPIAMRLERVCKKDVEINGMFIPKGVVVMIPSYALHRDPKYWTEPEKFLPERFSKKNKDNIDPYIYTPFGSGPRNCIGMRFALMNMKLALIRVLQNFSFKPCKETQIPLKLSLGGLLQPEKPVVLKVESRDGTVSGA

Calls of active or inactive are those of the source.

Chain of Protein Tat (P04608 whole entry): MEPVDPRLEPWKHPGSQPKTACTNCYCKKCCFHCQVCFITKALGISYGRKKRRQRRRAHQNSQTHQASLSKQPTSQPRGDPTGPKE
Chain of Large T antigen (P03070 whole entry): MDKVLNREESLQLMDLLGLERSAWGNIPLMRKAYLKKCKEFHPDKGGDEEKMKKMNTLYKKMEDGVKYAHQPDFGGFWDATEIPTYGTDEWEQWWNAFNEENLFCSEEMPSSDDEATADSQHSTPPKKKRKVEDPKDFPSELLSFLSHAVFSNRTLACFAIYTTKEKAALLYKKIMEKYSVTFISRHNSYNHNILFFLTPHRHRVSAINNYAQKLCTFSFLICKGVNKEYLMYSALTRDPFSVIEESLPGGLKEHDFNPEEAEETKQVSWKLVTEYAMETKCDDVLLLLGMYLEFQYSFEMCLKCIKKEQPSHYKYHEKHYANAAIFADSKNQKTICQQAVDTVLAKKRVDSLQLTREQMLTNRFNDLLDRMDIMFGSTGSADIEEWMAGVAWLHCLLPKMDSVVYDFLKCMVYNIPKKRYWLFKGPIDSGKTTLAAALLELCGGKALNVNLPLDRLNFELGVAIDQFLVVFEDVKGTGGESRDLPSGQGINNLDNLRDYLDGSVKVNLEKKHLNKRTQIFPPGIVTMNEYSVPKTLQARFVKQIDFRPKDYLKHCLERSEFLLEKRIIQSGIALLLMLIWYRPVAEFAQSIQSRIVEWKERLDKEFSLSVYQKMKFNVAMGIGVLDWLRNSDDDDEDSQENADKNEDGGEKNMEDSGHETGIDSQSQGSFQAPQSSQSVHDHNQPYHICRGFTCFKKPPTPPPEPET
Chain of Cytochrome P450 2C9 (P11712 whole entry): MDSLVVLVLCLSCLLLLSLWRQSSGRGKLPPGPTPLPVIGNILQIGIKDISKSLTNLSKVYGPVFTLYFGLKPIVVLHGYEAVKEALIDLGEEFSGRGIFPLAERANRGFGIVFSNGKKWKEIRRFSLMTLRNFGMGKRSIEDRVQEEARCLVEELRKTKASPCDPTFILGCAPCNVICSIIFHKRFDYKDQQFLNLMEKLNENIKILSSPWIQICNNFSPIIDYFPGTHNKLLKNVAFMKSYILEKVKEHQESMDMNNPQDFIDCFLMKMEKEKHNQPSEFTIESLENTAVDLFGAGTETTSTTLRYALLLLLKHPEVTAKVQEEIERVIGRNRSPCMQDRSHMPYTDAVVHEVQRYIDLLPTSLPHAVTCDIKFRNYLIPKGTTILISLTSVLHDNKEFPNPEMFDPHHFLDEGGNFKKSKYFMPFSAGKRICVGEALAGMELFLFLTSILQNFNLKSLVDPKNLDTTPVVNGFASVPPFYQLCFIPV

The term IC50 denotes the concentration that inhibits the measured activity by half. `CC1OC(OCC2OC(Oc3c(-c4ccc(O)cc4)oc4cc(O)cc(O)c4c3=O)C(O)C(O)C2O)C(O)C(O)C1O` (centres undefined): the IC50 was 17.3 µM (active) on Large T antigen and > 100 µM (active) at Protein Tat.

On to `CC(C(=O)Nc1ccccc1Oc1ccccc1)c1ccccc1` (centres undefined), for which the IC50 is 19.8 µM (not active) in data set [1], > 109 µM (inactive) in data set [2] and > 83.2 µM (inactive) in data set [3].

For the compound `O=C(CNC(=O)c1cccs1)OCC(=O)c1ccc2ccccc2c1`, in data set [4], the IC50 was > 100 µM (active).

The AC50 is the concentration at which the activity in the assay is half-maximal. On to `C[C@H]1CN([C@@H](C)CO)C(=O)Cc2cc(NC(=O)Nc3ccc(C(F)(F)F)cc3)ccc2O[C@@H]1CN(C)C(=O)Nc1ccc2c(c1)OCO2`, for which the AC50 in data set [5] was 1.11 µM (active); in data set [6], 1.51 µM (active); in data set [7] it was 0.9 µM (active); in data set [8], 0.93 µM (active).

Take `O=C(Nc1cccc2ccccc12)/C(=C/c1ccc([N+](=O)[O-])cc1)NC(=O)c1ccccc1`: the half-maximal inhibitory concentration (IC50) at Ephrin type-A receptor 4 was 11.4 µM (active). In addition, on Cytochrome P450 2C9, the AC50 was 5.01 µM (inconclusive).

In the case of `COC(=O)c1sc2cc(C(F)(F)F)cnc2c1-c1cccs1`, the IC50 in data set [9] is reported as > 30 µM (not active).

One may read the CC50 as the concentration at which the toxic effect on the cells reaches its halfway point. As to `O=C(Nc1ccc2c(c1)oc1ccccc12)c1cccnc1`, the CC50 in data set [10] is 46.2 µM (active). The IC50 in data set [4] is > 100 µM (active).

`COc1cccc(S(=O)(=O)N(C)C[C@@H]2OCc3ccccc3-c3c(n(C)c4ccccc34)C(=O)N([C@H](C)CO)C[C@@H]2C)c1`: the AC50 at Paired box protein Pax-8 was 6.87 µM (active); in data set [11] it was 38.6 µM (active); in data set [5] it was 0.476 µM (active); in data set [6], 0.832 µM (active); in data set [7] it was 0.322 µM (active); in data set [8], 0.46 µM (active).

With `Cc1ccc(Cl)c(Nc2ccccc2C(=O)[O-])c1Cl.O.[Na+]` [MECLOFENAMATE SODIUM], the IC50 in [12], in data set [13], in data set [14], in data set [15], in [16] and in data set [17] was > 20 µM (inactive) throughout. The IC50 in [18] was 15.1 µM (inactive). On Cytochrome P450 3A4, the AC50 result is on record as “inconclusive”.

The record behind these values is ChEMBL document CHEMBL1201862, “PubChem BioAssay data set” (2004).
